Here are results for 14 molecules from patent EP0638566B1, “5-Aminoflavone derivatives, their preparation and their use as antibacterial, anti-estrogenic and/or antitumor agent” (KYOWA HAKKO KOGYO CO., LTD., priority 1993, dated 1995).

For test [1], the system named is Human mammary cancer MCF-7 cell. Description: Human mammary cancer MCF-7 cell growth inhibition test (neutral red). The test is classed as cell-based. The procedure:
Human mammary cancer MCF-7 cell growth inhibition test
Each 0.1 ml of MCF-7 cells which had been prepared to 5 x 10^4/ml using a medium (referred to as Medium B hereinafter) prepared by adding 10% bovine fetal serum, 10^-8M estradiol (manufactured by Sigma), 100 units/ml penicillin and 100 µg/ml streptomycin to RPMI1640 medium was distributed in each well of 96 well-microtiter plate. […] Supernatant was removed, each 0.1 ml of Medium B containing 0.02% neutral red was added to the residue, the mixture was cultured at 37 °C for 1 hour in a CO2 gas incubator and the cells were stained by neutral red dye. Supernatant was removed and the residue was washed once with a physiological saline. Then, the dye was extracted with 0.001N hydrochloric acid/30% ethanol and the absorbance at 550 nm was determined with a microplatereader.

The subject of test [2] is estrogen-dependent human mammary cancer MCF-7. Description: Antitumor effects against MCF-7 tumor transplanted in nude mice. The test is classed as in vivo, female BALB/c-nu/nu mice. Conditions: Mus musculus, MCF7, 5 days per week for two weeks, read-out: T/C; for response vs control in vivo at 50 mg/kg: dose 50 mg/kg oral. An excerpt: Antitumor effects against estrogen-dependent human mammary cancer MCF-7
The tumor fragment (2mm x 2mm x 2mm) of human hormone dependent mammary cancer MCF-7 was transplanted subcutaneously in the flank of female BALB/c-nu/nu mice (Nihon Crea), 7 to 9 weeks age. […] 3 to 4 Weeks after transplantation, mice of the tumor volume of 25 to 200 mm^3 were selected, and the test compounds were orally administered repeatedly to the groups (5 animals per group) for 5 days per a week, for total two weeks. In addition, estradiol propionate was administered again on the date of initial administration of the test compounds. Length and width of the tumor were determined every day, and the tumor volumes were calculated by means of ellipsoid approximation according to the following equation: […] [formula] The tumor volume at initial administration (Vo) and on the day of judgement (V) was calculated, and the tumor growth rate (V/Vo) was calculated. T/C value was obtained as the ratio of V/Vo value of treated group relative to that of control group.

Setting [3] is: MCF7, MCF-7 cells, medium with 10^-8M estradiol, 72 hours, neutral red, absorbance at 550 nm, read-out: IC50.

Counter-ions that a name gives are not always drawn. Like-named read-outs stand apart in the source and are kept apart here.

Consider `Cc1c(F)c(N)c2c(=O)cc(-c3ccc(N)c(Cl)c3)oc2c1F` [Compound 24, 5-Amino-2-(4-amino-3-chlorophenyl)-6,8-difluoro-7-methyl-4H-1-benzopyran-4-one], for which, in test [1] (setting [3]), the IC50 (in general, the concentration that gives 50% inhibition) came out at 92 nM.
Still for that read-out and setting: the same measure for `CCc1c(F)c(N)c2c(=O)cc(-c3ccc(N)c(F)c3)oc2c1F` [Compound 2, 5-Amino-2-(4-amino-3-fluorophenyl)-7-ethyl-6,8-difluoro-4H-1-benzopyran-4-one]: 130 nM.
Regarding `CC(=O)OCc1c(F)c(N)c2c(=O)cc(-c3ccc(N)c(F)c3)oc2c1F` [Compound 44, 7-Acetoxymethyl-5-amino-2-(4-amino-3-fluorophenyl)-6,8-difluoro-4H-1-benzopyran-4-one], in test [2] (dose 25 mg/kg oral, judgement day 14), the response vs control in vivo at 25 mg/kg came to 6.1%. Besides, 26 nM corresponded to half-maximal inhibition in test [1] (MCF7, 72 h) (IC50).
The molecule `CSc1c(F)c(N)c2c(=O)cc(-c3ccc(N)c(F)c3)oc2c1F` [Compound 10, 5-Amino-2-(4-amino-3-fluorophenyl)-6,8-difluoro-7-methylthio-4H-1-benzopyran-4-one] returned an IC50 in test [1] (MCF7, 72 h) of 190 nM.
For the molecule `CCOC(=O)c1c(F)c(N)c2c(=O)cc(-c3ccc(N)c(F)c3)oc2c1F` [Compound 13, 5-Amino-2-(4-amino-3-fluorophenyl)-7-ethoxycarbonyl-6,8-difluoro-4H-1-benzopyran-4-one], the IC50 in test [1] (setting [3]) turned out to be 1400 nM.
Turning to `COCc1c(F)c(N)c2c(=O)cc(-c3ccc(N)c(F)c3)oc2c1F` [Compound 43, 5-Amino-2-(4-amino-3-fluorophenyl)-6,8-difluoro-7-methoxymethyl-4H-1-benzopyran-4-one], the IC50 in test [1] (setting [3]) turned out to be 46 nM.
As to `CN(C)Cc1c(F)c(N)c2c(=O)cc(-c3ccc(N)c(F)c3)oc2c1F` [Compound 42, Hydrochloride of 5-amino-2-(4-amino-3-fluorophenyl)-7-dimethylaminomethyl-6,8-difluoro-4H-1-benzopyran-4-one], the IC50 in test [1] (MCF7, 72 h) came to 72 nM.
On to `C[S+]([O-])c1c(F)c(N)c2c(=O)cc(-c3ccc(N)c(F)c3)oc2c1F` (centres unmarked) [Compound 11, 5-Amino-2-(4-amino-3-fluorophenyl)-6,8-difluoro-7-methylsulfinyl-4H-1-benzopyran-4-one], for which the IC50 in test [1] (setting [3]) stood at 2500 nM.
On to `Nc1ccc(-c2cc(=O)c3c(N)c(F)c(CO)c(F)c3o2)cc1F` [Compound 39, 5-Amino-2-(4-amino-3-fluorophenyl)-6,8-difluoro-7-hydroxymethyl-4H-1-benzopyran-4-one], for which the response vs control in vivo at 50 mg/kg in test [2] (judgement day 14) came to 1.6%. In test [1] (MCF7, 72 h), the IC50 was 62 nM.
As to `COc1c(F)c(N)c2c(=O)cc(-c3ccc(N)c(F)c3)oc2c1F` [Compound 8, 5-Amino-2-(4-amino-3-fluorophenyl)-6,8-difluoro-7-methoxy-4H-1-benzopyran-4-one], half-maximal inhibition in test [1] (MCF7, 72 h) (IC50) was put at 100 nM.
As to `Nc1ccc(-c2cc(=O)c3c(N)c(F)c(F)c(F)c3o2)cc1F` [Compound 34, 5-Amino-2-(4-amino-3-fluorophenyl)-6,7,8-trifluoro-4H-1-benzopyran-4-one], the IC50 in test [1] (setting [3]) stood at 220 nM.
Same read-out and setting: then `Nc1ccc(-c2cc(=O)c3c(N)c(F)c(Cl)c(F)c3o2)cc1F` [Compound 5, 5-Amino-2-(4-amino-3-fluorophenyl)-7-chloro-6,8-difluoro-4H-1-benzopyran-4-one], with 210 nM; and `CCc1cc(-c2cc(=O)c3c(N)c(F)c(C)c(F)c3o2)ccc1N` [Compound 26, 5-Amino-2-(4-amino-3-ethylphenyl)-6,8-difluoro-7-methyl-4H-1-benzopyran-4-one], with 65 nM.
As to `Nc1ccc(-c2cc(=O)c3c(N)c(F)c(Br)c(F)c3o2)cc1F` [Compound 6, 5-Amino-2-(4-amino-3-fluorophenyl)-7-bromo-6,8-difluoro-4H-1-benzopyran-4-one], the response vs control in vivo at 50 mg/kg in test [2] (judgement day 21) was determined as 54%. In addition, in test [1] (setting [3]), the 50% inhibitory concentration (IC50) is 160 nM.
